Like-named read-outs stand apart in the source and are kept apart here.
Legend:
[1] = test system: KP4 cells sub-cutaneous xenografts; assay: KP4 sub-cutaneous xenografts in nude mice; settings: 50 mg/kg/day IP, 5 day/week
Excerpt: This dose was chosen from previous work on biguanides to treat mice with pancreatic cancer.
Figure 5 Progression of the volume of KP4 cells sub-cutaneous xenografts performed in nude mice over 37 days. […] (B) Body weight of mice seven days after treatment. […] Representative images shown. Scale bar = 100 µm. […] Results are shown in graphics comparing the percentage of cells stained in each category and the intensity of staining. (E,G) Images of the most representative phenotypes for KI67 staining (E) and cleaved caspase 3 (G).
Experimental. All experiments were performed in accordance to the rules of the in vivo ethical committe of University of Montreal (CDEA #17-103). 6-7 weeks old female nude mice (Hsd:Athymic Nude- Foxn1nu, Envigo) were implanted sub-cutaneously with 750.000 KP4 cells in 100μl of a sterile mix of 20% Matrigel (Corning) in saline solution. Tumor volume was determined by using a caliper, following the formula 4/3*Π*(L*W*T) were L represent the length of the tumor, W, the width, and T, the thickness (all measured in millimeter). […] The compounds were dissolved in the vehicle: 45% Propyleneglycol (Sigma-Aldrich) +5% Tween 80 (Sigma-Aldrich) + ddH2O.

red blood cells = assay: Hemolytic activity of PEB-biguanidium salts; format: cell-based; settings: red blood cells 2% v/v in PBS, 1 h at 37 °C
Protocol: The toxicity of PEB-Biguanidiums salts was estimated through their hemolytic activity by incubating red blood cells (RBC) with the compounds for 1 h (See Supplementary Table S13 and Supplementary Fig. S29).
Experimental. Red blood cells in Alsever’s solution were centrifuged for 10 min at 300g, washed 3 times with PBS buffer, and resuspended in PBS at 2% v/v. To each well of a 96-well plate, 195 µL of red blood cell solution and 5 µL of biguanidium salt in DMSO were added, and the plate was incubated with light agitation for 1 h at 37 °C. The plate was then centrifuged for 10 min at 300g, and 50 µL of the supernatant solution of each well was transferred to another plate. Absorbance was measured at λ = 405 nm. Each measurement was performed in triplicate in three different experiments.

[2] = test system: HPNE cells (normal immortalized pancreatic epithelial cells); assay: Growth assay (crystal violet), HPNE cells; format: cell-based, human; settings: 3 days treatment, crystal violet retention assay
Protocol: . The IC50 of most of the synthetic biguanides in HPNE cells was higher than for cancer cells (Supplementary Table S12).
All chemicals were purchased from Aldrich Chemicals in their highest purity and used without further purification. Deuterated dimethylsulfoxide (DMSO-d^6) and deuterated chloroform (CDCl3) were purchased from CDN Isotopes. NMR spectra were recorded on Bruker advance 400 and 100 spectrometers. Coupling constants are given in hertz (Hz) and chemical shifts are given in parts per million (ppm, δ) measured relative to the residual solvent (the multiplicity of the signals are given as s: singlet, d: doublet, t: triplet, and m: multiplet). High-resolution mass spectra (HRMS) were recorded on a TSQ Quantum Ultra (Thermo Scientific) triple quadrupole with accurate mass option instrument (Université de Montréal Mass Spectrometry Facility). MS experiences were performed using an UltrafleXtreme MALDI TOF/TOF mass spectrometer equipped with a SmartBeam II Nd:Yag/355 nm laser operating at 1 kHz and providing a laser focus down to 20 μm in diameter (Bruker Daltonics, Billerica, MA). The data acquisition for MS was performed in positive ion mode using the linear geometry with flexControl 3.4 (Bruker Daltonics, Billerica, MA). Acceleration voltage was set to + 25 kV and all other instrumental parameters (delayed extraction parameters, source voltages, detector gain, laser energy, etc.) were optimized for maximum S/N for the drug compounds. L-α-Phosphatidylcholine was purchased from Avanti Polar Lipids. Transport and depolarization studies as well as absorbance measurements were performed on a Varian Cary Eclipse fluorescence spectrophotometer. The hemolysis assays were performed on a Fluostar Optima plate reader. Single crystals of C18H18F3N5O3S were obtained from chloroform. A suitable crystal was selected and analysed on a Bruker Venture Metaljet diffractometer. Crystal violet retention assay was used for cell growth assays and IC50 were determined using Prism (GraphPad). NAD/NADH quantitation colorimetric kit (#K337-100) from Biovision was used according to manufacturer’s instructions. ECAR (extracellular acidification rate) and OCR of KP4 cells (oxygen consumption rate) were measured on a Seahorse XF-24 (Agilent).
Experimental. KP4 (Riken RCB1005) and PSN1 (ATCC: CRM-CRL-3211), were cultured in Dulbecco's modified Eagle's medium (DMEM) (Wisent, St-Bruno, QC) supplemented with 10 % of fetal bovine serum (FBS) (Wisent). HPNE hTERT (ATCC: CRL1423) were cultured in a mix of 75% DMEM without glucose (Sigma Cat#. D-5030) with additional 2 mM L-glutamine and 1.5 g/L sodium bicarbonate, 25% Medium M3 Base (Incell Corp. Cat# M300F- 500), fetal bovine serum 5% (wisent 10 ng/ml human recombinant EGF (Sigma-Aldrich), 5.5 mM D-glucose (Sigma-Aldrich), 750 ng/ml puromycin (Sigma-Aldrich). For dose-response assays, cells were seeded in 96 well plates (company). After 24 h, treatments were applied and cells were grown for 3 more days. Crystal violet retention assay used for cell growth assays were described previously^2. The data is expressed as relative absorbance of crystal violet extracted from the cells and diluted in 10 % acetic acid. IC50 were determined using Prism (GraphPad). Tumor spheres were grew according to Ferbeyre et al^3.

[3] = Octanol/water partition (logP) of compound 1b; format: physicochemical; settings: for logP at 24 h: octanol/water
Protocol: Experimental. A 10 µM or 20 µM solution of 1b was prepared in 5 ml of octanol and mixed with 5 ml distilled water at 25°C The solution was stirred and was left to settle for 24 hours before the absorbance of the octanol fraction was measured. The values obtained were fitted on a calibration curve prepared by measuring the absorbance of 1b in octanol at various concentrations (2.5, 10, 15, 20 and 30 µM). The logP was calculated using the following formula: […]
Where [1b]oct is the concentration of 1b in octanol and [1b]water is the concentration of 1b in water.

With `N=C(N)NC(=N)NCc1ccc(C#Cc2ccccc2)cc1` [1b, 4-(phenylethynyl)benzylbiguanide] the “Effect on body weight” value [1] was “did not affect body weight”, the Tolerability in vivo [1] was “well tolerated” and the “Effect on tumor volume” value ([1]; from day 11 post engraftment, 37 days) was “significantly reduced tumor volume”. The “HC 10% (µM)” value (red blood cells) was > 227 µM, the “HC 10% (µg/ml)” value (red blood cells) was > 100 µg/mL and the IC50 [2] was 80.9 µM. For the same compound, the “[1b] in octanol” value ([3]; Partition 1 (10 µM)) was 6.91 µM, the “[1b] in water” value ([3]; Partition 1 (10 µM)) was 3.09 µM and the “[1b] in octanol” value ([3]; Partition 2 (20 µM)) was 15.15 µM. For the same compound, the “[1b] in water” value ([3]; Partition 2 (20 µM)) was 4.85 µM, the logP at 24 h ([3]; Partition 1 (10 µM), 25°C, 24 hours, read-out: logP) was 0.35 and the logP at 24 h ([3]; Partition 2 (20 µM), 25°C, 24 hours, read-out: logP) was 0.5. For the same compound, the logP at 24 h ([3]; logP (mean of partitions 1 and 2), 25°C, spread ± 0.10 in its own column) was 0.42 and the logP at 24 h ([3]; read-out: logP) was 0.4.

Reference: article PMC8110578, “Phenylethynylbenzyl-modified biguanides inhibit pancreatic cancer tumor growth” (Scientific Reports, 2021)
